Measurements published in ChEMBL document CHEMBL1201862, “PubChem BioAssay data set” (2004).
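Each compound was tested at five concentrations against cells in 96-well plates for 48 hours. GI50: concentration for 50% inhibition of growth.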 Active and inactive are the calls of the source. Cut-off read from the data, not from the text of the source: active = GI50 up to about 1.1 µM and inactive = higher.

Columns and labels:
Assay in all cases: inhibition of tumour cell growth, NCI panel, 48 h
[1] = tested on: BT-549
[2] = tested on: Hs-578T
[3] = tested on: DMS-114
[4] = tested on: KM-20L2
[5] = tested on: LXFL 529
[6] = tested on: M19-MEL
[7] = tested on: SNB-78
[8] = tested on: HOP-18

Compound	GI50 [1]	GI50 [2]	GI50 [3]	GI50 [4]	GI50 [5]	GI50 [6]	GI50 [7]	GI50 [8]
COC(=O)c1ccccc1CC1Cc2cccc(C)c2C1=O (stereo unspecified)	30 µM (inactive)	38.3 µM (inactive)	–	–	–	–	–	–
CC(C)OCC1CC(CC(=O)Nc2nncs2)C(=O)O1 (stereo unspecified)	> 100 µM (inactive)	> 100 µM (inactive)	–	–	–	–	–	–
Cc1nc(-c2nc(C)c(C(=O)/C=C/c3ccc([N+](=O)[O-])cc3)s2)sc1C(=O)/C=C/c1ccc([N+](=O)[O-])cc1	–	–	> 100 µM (inactive)	> 100 µM (inactive)	> 100 µM (inactive)	> 100 µM (inactive)	> 100 µM (inactive)	–
CSC(=N/C=C/c1ccccc1)SC	> 100 µM (inactive)	68.1 µM (inactive)	–	–	–	–	–	–
CC1=NN(C(=O)c2ccccc2O)C(=O)/C1=C/c1ccc([N+](=O)[O-])cc1	0.328 µM (active)	0.348 µM (active)	0.0875 µM (active)	7.96 µM (inactive)	0.0586 µM (active)	2.3 µM (inactive)	0.0861 µM (active)	–
Cc1c(CNc2ccc(C(=O)NC(CC(=O)O)C(=O)O)cc2)ccc2nc(N)nc(N)c12 (stereo unspecified)	> 100 µM (inactive)	684 µM (inactive)	< 0.01 µM (active)	–	< 0.01 µM (active)	0.122 µM (active)	> 100 µM (inactive)	0.867 µM (active)
CCOc1cc(C2SCC(=O)N2c2nc3cc4sc(N5C(=O)CSC5c5ccc(O)c(OCC)c5)nc4cc3s2)ccc1O (stereo unspecified)	9.59 µM (inactive)	> 47.1 µM (inactive)	–	–	–	–	–	–
Cc1ccc2occ/c(=N\Nc3ccccc3)c2c1	> 100 µM (inactive)	65.3 µM (inactive)	–	–	–	–	–	–
Cc1cc2c(C)nn(Cc3ccccc3)c2c(C(N)=O)c1C	–	–	> 100 µM (inactive)	> 100 µM (inactive)	> 100 µM (inactive)	> 100 µM (inactive)	> 100 µM (inactive)	–
COC(=O)c1c(CC(=O)OC(C)C)cc2n(c1=O)Cc1c-2nc2ccccc2c1OC	–	–	> 100 µM (inactive)	> 100 µM (inactive)	> 100 µM (inactive)	> 100 µM (inactive)	–	> 100 µM (inactive)
COc1ccc(C2[C@H]3C(=O)N(c4ccc(Cc5ccc(N6C(=O)[C@@H]7ON(c8ccccc8)C(c8ccc(OC)cc8)[C@@H]7C6=O)cc5)cc4)C(=O)[C@H]3ON2c2ccccc2)cc1 (stereo partly specified)	–	–	–	> 100 µM (inactive)	> 100 µM (inactive)	> 100 µM (inactive)	> 100 µM (inactive)	> 100 µM (inactive)
Fc1ccc(Nc2nnc(-c3ccccn3)s2)cc1	> 100 µM (inactive)	> 100 µM (inactive)	–	–	–	–	–	–
COc1cc2c(c(OC)c1)/C(=C/Sc1ccccc1)C(=O)N(C(C)(C)C)C2	26 µM (inactive)	–	–	–	–	–	–	–
CCOC(=O)n1ccc2c(C(=O)OC)c(C(=O)OC)cc(/C(=C/C(=O)OC)C(=O)OC)c21	60.7 µM (inactive)	> 100 µM (inactive)	–	–	–	–	–	–
CC(O)=NC(Cc1ccc2ccccc2c1)C(O)=NC(Cc1ccc(Cl)cc1)C(O)=NC(Cc1c[nH]c2ccccc12)C(O)=NC(CO)C(O)=NC(Cc1ccc(O)cc1)C(O)=NC(CCCN=C(N)N)C(O)=NC(CC(C)C)C(O)=NC(CCCN=C(N)N)C(=O)N1CCCC1C(O)=NC(C)C(=N)O (stereo unspecified)	12.1 µM (inactive)	47.4 µM (inactive)	–	–	–	–	–	–
C[N+](C)(C)CC1CCC/C1=N\OC(=O)c1ccccc1 (stereo unspecified)	–	–	> 100 µM (inactive)	> 100 µM (inactive)	> 100 µM (inactive)	> 100 µM (inactive)	> 100 µM (inactive)	> 100 µM (inactive)
O=C1/C(=C/c2cccc(Oc3ccccc3)c2)N=C(c2ccccc2)N1c1nc2ccc(Sc3ccccc3)cc2[nH]1	14.9 µM (inactive)	41.3 µM (inactive)	–	–	–	–	–	–
CC(C)/C(Cl)=N/OC(=O)Nc1ccc(OC(F)(F)F)cc1	16.3 µM (inactive)	15.8 µM (inactive)	–	–	–	–	–	–
COc1ccc(C23OCC(Cc4cc(OC)c(OC)cc42)C3CO)cc1OC (stereo unspecified)	> 100 µM (inactive)	–	–	–	–	–	–	–
CCOC(=O)Cc1cc(=O)oc2cc(O)ccc12	> 100 µM (inactive)	> 100 µM (inactive)	–	–	–	–	–	–
COc1cccc(C=C2N=C(C)N(n3c(-c4ccccc4)nc4ccccc4c3=O)C2=O)c1	> 100 µM (inactive)	> 100 µM (inactive)	–	–	–	–	–	–
CCOC(=O)NNC(=O)NCc1ccccc1CNC(=O)NNC(=O)OCC	> 100 µM (inactive)	> 100 µM (inactive)	–	–	–	–	–	–
Oc1nc2nnc(COc3ccc(Cl)cc3Cl)n2nc1Cc1ccccc1	> 100 µM (inactive)	51.6 µM (inactive)	–	–	–	–	–	–
COC(CN(C(=O)c1ccccc1)C1CCC2(SCCS2)c2[nH]c3ccccc3c21)OC (stereo unspecified)	13.7 µM (inactive)	75.2 µM (inactive)	–	–	–	–	–	–
O=S(=O)(c1ccccc1)C1(C2(S(=O)(=O)c3ccccc3)CCN=N2)CCN=N1 (stereo unspecified)	–	–	> 100 µM (inactive)	–	> 100 µM (inactive)	> 100 µM (inactive)	–	–
C=CCN(C(=O)OC(C)(C)C)[C@H](C)C(=O)N[C@@H](C)C(=O)OC	> 100 µM (inactive)	> 100 µM (inactive)	–	–	–	–	–	–
CN(C)C(=O)OC(Cn1cncn1)(Cn1cncn1)c1ccc(Cl)cc1Cl	> 100 µM (inactive)	> 100 µM (inactive)	–	–	–	–	–	–
N/C(=N/O)c1cn(C2OC(CO)C(O)C2O)c2ncnc(NO)c12 (stereo unspecified)	0.426 µM (active)	1.01 µM (active)	–	–	–	–	–	–
